{
  "source": "patent US7338955B1",
  "about": "“Medicament for treatment of neuropathies” (Lilly ICOS LLC, priority 1999, dated 2008)",
  "key": {"diabetic polyneuropathy": {"test_system": "diabetic polyneuropathy", "experiment": "Case report: type 2 diabetes patient with diabetic polyneuropathy treated with sildenafil", "format": "in vivo, human", "conditions": "twelve months after start of therapy", "experimental": "A patient had been suffering from diabetes mellitus, type 2, for 9 years. While blood glucose values (HbA1c between 6 and 7%) were good, symptoms of a diabetic polyneuropathy appeared, namely vibration sensing of 2/8, no filament sensing, and a reduced hot/cold differentiation. Because of a simultaneous erectile dysfunction they were treated with sildenafil in its commercially available preparation (tablets) at 50 mg/week in a single administration.\nSubjectively, the patient noted disappearance of sensory misperceptions of temperature."}, "painful neuropathy": {"test_system": "painful neuropathy", "experiment": "Case report: type 1 diabetes patient with painful neuropathy treated with sildenafil", "format": "in vivo, human", "conditions": "50 mg/week single administration", "experimental": "A patient had been suffering from diabetes mellitus, type 1, for about 35 years. Complications included a retinopathy and a painful neuropathy. Under intensified insulin therapy, blood glucose metabolism data were in a sub-optimum range (HbA1c around 8%). Thus, the patient suffered from a painful neuropathy and was treated unsuccessfully with various conventional medicaments.\nObjectifiable diagnostic data were improved as well."}},
  "data": [
    {"compound": "CCCc1nn(C)c2c(=O)[nH]c(-c3cc(S(=O)(=O)N4CCN(C)CC4)ccc3OCC)nc12", "note": "[sildenafil]", "values": [
      {"measurement": "neurologic situation", "setting": "diabetic polyneuropathy; 50 mg/week single administration (tablets)", "value": "largely normal"},
      {"measurement": "sensory misperceptions of temperature (subjective)", "setting": "diabetic polyneuropathy; 50 mg/week", "value": "disappearance"},
      {"measurement": "vibration sensing", "setting": "diabetic polyneuropathy; 50 mg/week, 2/8 before therapy", "value": "5/8"},
      {"measurement": "filament sensing", "setting": "diabetic polyneuropathy; 50 mg/week, no filament sensing before therapy", "value": "intact"},
      {"measurement": "hot/cold differentiation", "setting": "diabetic polyneuropathy; 50 mg/week, reduced before therapy", "value": "intact"},
      {"measurement": "symptomatic pain", "setting": "painful neuropathy; in the course of the following three months", "value": "lasting improvement"},
      {"measurement": "objectifiable diagnostic data", "setting": "painful neuropathy; three months", "value": "improved"}
    ]}
  ]
}
